Where two headings read alike, the source gives them in different places.
Key:
[1] = tested on: CHO subline engineered to express human RFC (PC43-10); test: Proliferation assay, RFC-expressing PC43-10 CHO cells; conditions: PC43-10, 96 h, read-out: IC50 PC43-10 (RFC)
human PCFT = biological target: T1, human PCFT (Homo sapiens, UniProt Q96NT5); test: PCFT transport competition, [3H]MTX uptake in R2/PCFT4 CHO cells; assay type: cell-based; conditions: for inhibition at 1 µM / inhibition at 10 µM: pH 5.5, read-out: Inhibition of [3H]MTX uptake; for Ki for PCFT [3H]MTX transport inhibition, fold higher than for PMX: pH 5.5, Dixon analysis
T1 sequence (Q96NT5 1-459): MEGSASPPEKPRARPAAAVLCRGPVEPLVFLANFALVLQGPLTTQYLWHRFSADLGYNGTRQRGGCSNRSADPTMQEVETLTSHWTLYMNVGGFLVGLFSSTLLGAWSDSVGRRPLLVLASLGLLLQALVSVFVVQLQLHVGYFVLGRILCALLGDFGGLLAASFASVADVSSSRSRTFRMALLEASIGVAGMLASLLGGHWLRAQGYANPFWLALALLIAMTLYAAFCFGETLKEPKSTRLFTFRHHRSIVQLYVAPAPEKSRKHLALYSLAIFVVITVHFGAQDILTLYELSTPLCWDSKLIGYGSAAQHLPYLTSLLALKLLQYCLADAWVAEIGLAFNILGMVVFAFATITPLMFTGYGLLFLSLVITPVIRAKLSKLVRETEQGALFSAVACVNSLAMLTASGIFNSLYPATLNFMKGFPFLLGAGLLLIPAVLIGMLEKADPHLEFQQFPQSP

FRα (RT16 CHO cells) = FRα (RT16 CHO cells) (Homo sapiens, UniProt P15328); test: FR binding assay, [3H]folic acid competition in RT16 cells; conditions: folic acid = 1
Chain of FRα (RT16 CHO cells) (P15328 25-257): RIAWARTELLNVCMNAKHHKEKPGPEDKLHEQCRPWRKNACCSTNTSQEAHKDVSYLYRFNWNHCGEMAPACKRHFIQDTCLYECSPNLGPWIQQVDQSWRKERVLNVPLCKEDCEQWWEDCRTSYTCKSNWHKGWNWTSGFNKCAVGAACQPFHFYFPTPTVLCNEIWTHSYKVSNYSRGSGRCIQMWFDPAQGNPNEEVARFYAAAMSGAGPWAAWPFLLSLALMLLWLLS

FRβ (D4 CHO cells) = FRβ (D4 CHO cells) (Homo sapiens, UniProt P14207); test: FR binding assay, [3H]folic acid competition in D4 cells; conditions: folic acid = 1
Chain of FRβ (D4 CHO cells) (P14207 17-255): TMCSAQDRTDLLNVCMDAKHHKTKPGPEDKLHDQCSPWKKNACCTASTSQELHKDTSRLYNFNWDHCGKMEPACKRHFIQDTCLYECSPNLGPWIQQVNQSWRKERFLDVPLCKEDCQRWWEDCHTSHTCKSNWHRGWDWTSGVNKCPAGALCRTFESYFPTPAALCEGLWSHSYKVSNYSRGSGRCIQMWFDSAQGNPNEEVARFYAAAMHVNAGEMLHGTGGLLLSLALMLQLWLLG

human GARFTase = biological target: T2, human GARFTase (Homo sapiens, UniProt P22102); assay type: biochemical; conditions: from Ki values, Table 2
T2 sequence (P22102 810-1010 limits assumed): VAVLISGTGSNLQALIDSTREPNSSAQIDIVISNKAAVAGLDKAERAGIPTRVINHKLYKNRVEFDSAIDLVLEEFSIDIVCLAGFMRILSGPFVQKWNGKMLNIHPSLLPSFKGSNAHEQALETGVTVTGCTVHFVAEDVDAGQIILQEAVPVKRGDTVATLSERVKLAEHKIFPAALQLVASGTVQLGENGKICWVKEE

[2] = tested on: IGROV1 ovarian tumor xenografts; test: In vivo efficacy trial with IGROV1 xenografts in SCID mice; conditions: folate-deficient diet
[3] = tested on: KB human tumor cells (express RFC, FRα, and PCFT); assay type: cell-based

Work on `Nc1nc2[nH]c(CCCc3ccc(C(=O)N[C@@H](CCC(=O)O)C(=O)O)cc3)cc2c(=O)[nH]1` [Compound 1] yielded an IC50 [1] of 649 nM, an inhibition at 1 µM (human PCFT) of 30 to 60% and an inhibition at 10 µM (human PCFT) of 80 to 90%.
For `Nc1nc2[nH]c(CCSc3ccc(C(=O)N[C@@H](CCC(=O)O)C(=O)O)cc3)cc2c(=O)[nH]1` [Compound 9, (4-{[2-(2-amino-4-oxo-4,7-dihydro-3H-pyrrolo[2,3-d]pyrimidin-6-yl)ethyl]thio}benzoyl)-L-glutamic acid], the “Relative binding affinity, % of the affinity for folic acid, FRα” value (from here on “Relative binding affinity, % … FRα”) (FRα (RT16 CHO cells)) was 60–110% and the “Relative binding affinity, % of the affinity for folic acid, FRβ” value (shortened to “Relative binding affinity, % … FRβ”) (FRβ (D4 CHO cells)) was 60–110%.
For `Nc1nc2[nH]c(CCNc3ccc(C(=O)N[C@@H](CCC(=O)O)C(=O)O)cc3)cc2c(=O)[nH]1` [Compound 4, (4-{[2-(2-Amino-4-oxo-4,7-dihydro-3H-pyrrolo[2,3-d]pyrimidin-6-yl)ethyl]amino}benzoyl)-L-glutamic acid], the “Relative binding affinity, % … FRα” value (FRα (RT16 CHO cells)) was 60–110%, the “Improvement in GARFTase inhibitory potency over C (1)” value (human GARFTase) was “approximately 3 fold” and the “Relative binding affinity, % … FRβ” value (FRβ (D4 CHO cells)) was 60–110%. For the same molecule, the “T-C (tumor growth delay)” value ([2]; 384 mg/kg total dose) was 9 days, the log10 kill ([2]; 384 mg/kg total dose) was 1.4 and the “Highest non-toxic total dose” value ([2]; Q3dx4 iv) was 600 mg/kg. The “Body weight loss (nadir)” value ([2]; during treatment, reversible) was 17.0–17.3%.
Work on `Nc1nc2[nH]cc(CCc3ccc(C(=O)N[C@@H](CCC(=O)O)C(=O)O)cc3)c2c(=O)[nH]1` [PMX, pemetrexed] yielded an inhibition at 1 µM (human PCFT) of at least 90% and an inhibition at 10 µM (human PCFT) of at least 90%.
In the case of `Nc1nc2[nH]c(CCCc3ccc(C(=O)N[C@@H](CCC(=O)O)C(=O)O)s3)cc2c(=O)[nH]1` [Compound 3], the IC50 ([3]; read-out: IC50 KB) is reported as 0.26 nM, the IC50 ([3]; read-out: IC50 KB (+FA)) is reported as 101 nM and the IC50 [1] is reported as 101 nM.
`Nc1nc2[nH]c(CCOc3ccc(C(=O)N[C@@H](CCC(=O)O)C(=O)O)cc3)cc2c(=O)[nH]1` [Compound 8, {4-[2-(2-amino-4-oxo-4,7-dihydro-3H-pyrrolo[2,3-d]pyrimidin-6-yl)ethoxy]benzoyl}-L-glutamic acid] was tested, and the “Relative binding affinity, % … FRα” value (FRα (RT16 CHO cells)) was 60–110%, the “Improvement in GARFTase inhibitory potency over C (1)” value (human GARFTase) was “approximately 3 fold” and the “Relative binding affinity, % … FRβ” value (FRβ (D4 CHO cells)) was 60–110%. For the same molecule, the “Ki for PCFT [3H]MTX transport inhibition, fold higher than for PMX” value (human PCFT) was ~ 7 fold.
In the case of `CC(=O)N(CCc1cc2c(=O)[nH]c(N)nc2[nH]1)c1ccc(C(=O)N[C@@H](CCC(=O)O)C(=O)O)cc1` [Compound 6, (4-{N-[2-(2-amino-4-oxo-4,7-dihydro-3H-pyrrolo[2,3-d]pyrimidin-6-yl)ethyl]acetamido}benzoyl)-L-glutamic acid], the “Ki for PCFT [3H]MTX transport inhibition, fold higher than for PMX” value (human PCFT) is reported as ~ 18 fold.
